Measurements published in publication PMC4503722, “Novel Phenotypic Outcomes Identified for a Public Collection of Approved Drugs from a Publicly Accessible Panel of Assays” (PLoS ONE, 2015).

Legend:
[1] = system: SNU-C1; experiment: cells; assay type: cell-based; details: basal; for Basal_Viability ATP SNU-C1 IC50/EC50: assay number 30
[2] = system: Colo320; experiment: cells; assay type: cell-based; details: basal; for Basal_Viability ATP Colo 320 IC50/EC50: assay number 27
[3] = system: SW480; experiment: cells; assay type: cell-based; details: basal
[4] = system: DLD-1; experiment: cells; assay type: cell-based; details: basal
[5] = system: HCT116; experiment: cells; assay type: cell-based; details: basal
[6] = system: alkaline phosphatase (ALP) activity in C2C12 cells; assay type: cell-based; details: concentration response; for WntCondMedia_Alk Phos C2C12 IC50/EC50: assay number 6
[7] = system: nuclear β-catenin in C2C12 cells; experiment: cells; assay type: cell-based; details: concentration response; for WntCondMedia_bCatenin C2C12 IC50/EC50: assay number 5
[8] = system: HT-29; experiment: cells; assay type: cell-based; details: basal; for Basal_Viability ATP HT-29 IC50/EC50: assay number 28
[9] = system: HeLa cells; experiment: cells; assay type: cell-based; details: for Hela CellCycMod PI 2N IC50/EC50: assay number 14; for Hela CellCycMod PI 4N IC50/EC50: assay number 16; for Hela CellCycMod PI MI IC50/EC50: assay number 17; for Hela CellCycMod PI Cell Number IC50/EC50: assay number 18; for Hela CellCycMod PI S Phase IC50/EC50: assay number 15
[10] = system: HCT116 cells treated with a GSK3β inhibitor; experiment: cells; assay type: cell-based; details: for GSK3b inh pretreated_Viability ATP HCT116 IC50/EC50: assay number 26, GSK3b inhibitor pretreated
[11] = system: RKO; experiment: cells; assay type: cell-based; details: basal; for Basal_Viability ATP RKO IC50/EC50: assay number 29
[12] = molecular target: T1, hKDR (Homo sapiens, UniProt P35968); experiment: Cerep LANCE kinase assay hKDR (S1 assay 32); assay type: biochemical; details: assay number 32
T1 construct: purchased Cerep (LANCE kinase assay platform, contract assay)
T1 sequence (P35968 20-1356): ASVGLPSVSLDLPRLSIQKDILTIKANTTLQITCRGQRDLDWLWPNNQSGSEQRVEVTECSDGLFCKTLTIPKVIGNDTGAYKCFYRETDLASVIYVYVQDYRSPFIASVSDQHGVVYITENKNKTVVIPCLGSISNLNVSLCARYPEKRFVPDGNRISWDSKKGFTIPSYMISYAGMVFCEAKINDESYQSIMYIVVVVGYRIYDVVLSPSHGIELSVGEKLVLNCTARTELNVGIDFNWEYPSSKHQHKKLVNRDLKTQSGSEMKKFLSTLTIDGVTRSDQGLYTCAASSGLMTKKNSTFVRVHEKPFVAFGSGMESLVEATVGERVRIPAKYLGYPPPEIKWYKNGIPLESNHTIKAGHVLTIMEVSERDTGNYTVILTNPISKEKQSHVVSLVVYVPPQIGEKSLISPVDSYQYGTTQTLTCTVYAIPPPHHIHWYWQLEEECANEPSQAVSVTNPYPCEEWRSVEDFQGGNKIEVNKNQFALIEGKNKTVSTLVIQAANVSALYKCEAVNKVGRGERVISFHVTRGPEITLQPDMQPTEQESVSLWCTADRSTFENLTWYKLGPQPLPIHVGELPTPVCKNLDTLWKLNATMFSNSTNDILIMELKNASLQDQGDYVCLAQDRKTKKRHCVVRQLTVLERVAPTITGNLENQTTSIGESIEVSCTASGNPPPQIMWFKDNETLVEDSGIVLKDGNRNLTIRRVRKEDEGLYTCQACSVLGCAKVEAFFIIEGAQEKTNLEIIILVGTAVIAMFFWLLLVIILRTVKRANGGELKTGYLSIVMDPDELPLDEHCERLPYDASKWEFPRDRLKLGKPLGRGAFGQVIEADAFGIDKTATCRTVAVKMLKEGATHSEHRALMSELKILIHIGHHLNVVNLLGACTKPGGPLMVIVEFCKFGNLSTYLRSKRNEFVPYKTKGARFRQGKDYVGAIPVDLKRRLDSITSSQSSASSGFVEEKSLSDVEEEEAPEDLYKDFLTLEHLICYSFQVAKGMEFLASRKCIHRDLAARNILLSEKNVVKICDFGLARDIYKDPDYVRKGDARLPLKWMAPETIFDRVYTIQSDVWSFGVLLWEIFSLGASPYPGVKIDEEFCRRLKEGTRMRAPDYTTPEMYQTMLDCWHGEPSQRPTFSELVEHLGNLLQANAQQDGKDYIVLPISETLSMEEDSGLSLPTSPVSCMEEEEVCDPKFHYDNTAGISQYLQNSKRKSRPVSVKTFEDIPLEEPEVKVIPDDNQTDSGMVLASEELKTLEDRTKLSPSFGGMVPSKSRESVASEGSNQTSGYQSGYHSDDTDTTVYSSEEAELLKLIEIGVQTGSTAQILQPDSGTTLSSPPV

[13] = molecular target: T2, hFLT3 (Homo sapiens, UniProt P36888); experiment: Cerep LANCE kinase assay hFLT3 (S1 assay 35); assay type: biochemical; details: assay number 35
T2 construct: purchased Cerep (LANCE kinase assay platform, contract assay)
T2 sequence (P36888 27-993): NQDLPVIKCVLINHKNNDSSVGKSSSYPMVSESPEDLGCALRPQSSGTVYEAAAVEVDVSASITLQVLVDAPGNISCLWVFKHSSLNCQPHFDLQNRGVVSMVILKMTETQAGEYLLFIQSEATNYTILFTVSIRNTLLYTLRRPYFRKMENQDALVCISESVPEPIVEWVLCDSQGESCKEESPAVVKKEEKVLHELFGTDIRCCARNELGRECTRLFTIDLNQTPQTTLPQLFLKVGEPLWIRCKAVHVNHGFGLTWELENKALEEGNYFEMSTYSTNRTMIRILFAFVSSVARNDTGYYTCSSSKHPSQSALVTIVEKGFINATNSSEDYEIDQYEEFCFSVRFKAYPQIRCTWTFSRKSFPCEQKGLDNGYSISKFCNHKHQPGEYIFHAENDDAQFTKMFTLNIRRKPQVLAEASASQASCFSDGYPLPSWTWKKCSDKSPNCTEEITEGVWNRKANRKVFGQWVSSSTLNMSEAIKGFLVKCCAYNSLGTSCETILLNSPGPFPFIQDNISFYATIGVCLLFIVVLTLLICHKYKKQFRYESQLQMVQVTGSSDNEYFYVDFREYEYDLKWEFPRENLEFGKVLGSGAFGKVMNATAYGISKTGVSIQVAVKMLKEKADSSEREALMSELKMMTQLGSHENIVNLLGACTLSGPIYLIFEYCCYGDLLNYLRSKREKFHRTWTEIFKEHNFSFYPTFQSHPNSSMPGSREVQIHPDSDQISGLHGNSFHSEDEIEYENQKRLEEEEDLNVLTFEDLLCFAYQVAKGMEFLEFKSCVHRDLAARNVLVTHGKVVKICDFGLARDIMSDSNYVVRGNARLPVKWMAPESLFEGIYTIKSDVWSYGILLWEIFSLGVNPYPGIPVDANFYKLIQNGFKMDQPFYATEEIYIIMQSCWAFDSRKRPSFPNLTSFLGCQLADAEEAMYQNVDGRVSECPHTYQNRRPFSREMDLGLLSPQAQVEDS

[14] = molecular target: T3, hGSK3b (Homo sapiens, UniProt P49841); experiment: Cerep LANCE kinase assay hGSK3b (S1 assay 34); assay type: biochemical; details: assay number 34
T3 construct: purchased Cerep (LANCE kinase assay platform, contract assay)
T3 sequence (P49841 whole entry): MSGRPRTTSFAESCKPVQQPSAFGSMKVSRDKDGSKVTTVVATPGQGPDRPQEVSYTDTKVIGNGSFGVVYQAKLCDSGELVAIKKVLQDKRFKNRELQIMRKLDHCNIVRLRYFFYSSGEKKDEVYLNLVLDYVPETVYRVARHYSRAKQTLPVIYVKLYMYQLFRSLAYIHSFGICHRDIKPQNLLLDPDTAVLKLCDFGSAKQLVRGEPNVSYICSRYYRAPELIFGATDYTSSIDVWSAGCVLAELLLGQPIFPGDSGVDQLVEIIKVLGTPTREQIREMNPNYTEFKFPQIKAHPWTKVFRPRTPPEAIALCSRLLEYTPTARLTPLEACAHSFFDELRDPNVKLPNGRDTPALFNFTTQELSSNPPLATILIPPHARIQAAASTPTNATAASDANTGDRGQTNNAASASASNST

[15] = molecular target: T4, hJAK2 (Homo sapiens, UniProt O60674); experiment: Cerep LANCE kinase assay hJAK2 (S1 assay 33); assay type: biochemical; details: assay number 33
T4 construct: purchased Cerep (LANCE kinase assay platform, contract assay)
T4 sequence (O60674 whole entry): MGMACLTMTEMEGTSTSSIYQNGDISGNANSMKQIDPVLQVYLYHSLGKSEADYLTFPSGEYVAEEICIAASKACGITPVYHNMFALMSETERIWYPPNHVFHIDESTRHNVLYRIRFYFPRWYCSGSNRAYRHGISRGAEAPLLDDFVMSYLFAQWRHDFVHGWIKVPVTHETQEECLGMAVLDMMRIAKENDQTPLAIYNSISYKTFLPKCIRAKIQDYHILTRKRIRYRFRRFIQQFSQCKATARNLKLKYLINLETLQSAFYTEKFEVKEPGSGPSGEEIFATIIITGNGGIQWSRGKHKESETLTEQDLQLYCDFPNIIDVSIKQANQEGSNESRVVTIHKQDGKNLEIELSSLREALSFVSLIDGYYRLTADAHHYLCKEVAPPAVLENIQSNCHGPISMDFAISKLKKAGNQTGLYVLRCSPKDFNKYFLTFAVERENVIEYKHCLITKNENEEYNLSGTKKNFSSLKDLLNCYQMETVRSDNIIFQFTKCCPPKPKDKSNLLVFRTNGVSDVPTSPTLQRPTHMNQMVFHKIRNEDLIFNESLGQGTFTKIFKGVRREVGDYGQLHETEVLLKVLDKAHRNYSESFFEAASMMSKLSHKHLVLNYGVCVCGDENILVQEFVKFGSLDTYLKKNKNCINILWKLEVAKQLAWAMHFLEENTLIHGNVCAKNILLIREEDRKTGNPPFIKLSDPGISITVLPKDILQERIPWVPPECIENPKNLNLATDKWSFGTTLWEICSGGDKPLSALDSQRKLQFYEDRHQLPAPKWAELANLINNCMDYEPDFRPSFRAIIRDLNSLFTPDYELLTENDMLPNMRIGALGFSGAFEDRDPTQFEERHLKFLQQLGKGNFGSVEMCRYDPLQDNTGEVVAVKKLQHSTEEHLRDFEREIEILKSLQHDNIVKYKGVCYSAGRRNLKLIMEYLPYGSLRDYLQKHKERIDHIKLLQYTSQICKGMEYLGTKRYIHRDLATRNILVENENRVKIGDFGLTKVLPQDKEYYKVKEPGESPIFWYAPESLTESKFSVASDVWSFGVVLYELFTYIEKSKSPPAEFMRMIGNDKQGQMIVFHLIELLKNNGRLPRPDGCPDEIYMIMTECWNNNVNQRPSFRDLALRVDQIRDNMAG

[16] = molecular target: T5, hp70S6K1 (RPS6KB1) (Homo sapiens, UniProt P23443); experiment: Cerep LANCE kinase assay hp70S6K1 (S1 assay 31); assay type: biochemical; details: assay number 31
T5 construct: purchased Cerep (LANCE kinase assay platform, contract assay)
T5 sequence (P23443 whole entry): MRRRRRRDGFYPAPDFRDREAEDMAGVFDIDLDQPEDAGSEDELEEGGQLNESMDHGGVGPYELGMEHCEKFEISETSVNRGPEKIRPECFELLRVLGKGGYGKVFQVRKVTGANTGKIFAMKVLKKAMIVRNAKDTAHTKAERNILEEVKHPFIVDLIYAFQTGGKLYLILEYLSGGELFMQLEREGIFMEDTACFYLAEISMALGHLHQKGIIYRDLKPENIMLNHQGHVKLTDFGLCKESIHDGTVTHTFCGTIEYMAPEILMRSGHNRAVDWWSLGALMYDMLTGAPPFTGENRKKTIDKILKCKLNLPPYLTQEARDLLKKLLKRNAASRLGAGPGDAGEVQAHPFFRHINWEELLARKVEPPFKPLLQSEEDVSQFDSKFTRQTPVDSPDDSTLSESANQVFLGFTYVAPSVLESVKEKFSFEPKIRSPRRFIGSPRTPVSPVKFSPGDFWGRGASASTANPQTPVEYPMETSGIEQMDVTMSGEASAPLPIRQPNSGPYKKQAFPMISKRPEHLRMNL

[17] = system: ECFC/ADSC co-culture cell nuclei number
[18] = system: endothelial tube formation in co-cultures of ECFCs and ADSCs treated with VEGF; experiment: cells; assay type: cell-based, human

SMILES	hKDR LANCE IC50/EC50 [12]	hFLT3 LANCE IC50/EC50 [13]	hGSK3b LANCE IC50/EC50 [14]	WntCondMedia_Alk Phos C2C12 IC50/EC50 [6]	WntCondMedia_bCatenin C2C12 IC50/EC50 [7]	hJAK2 LANCE IC50/EC50 [15]	Hela CellCycMod PI 2N IC50/EC50 ([9]; 2N)	Hela CellCycMod PI 4N IC50/EC50 ([9]; 4N)	Hela CellCycMod PI MI IC50/EC50 ([9]; MI)	Hela CellCycMod PI Cell Number IC50/EC50 [9]	hp70S6K1 LANCE IC50/EC50 [16]	Hela CellCycMod PI S Phase IC50/EC50 [9]	VEGF_ADSC\ECFC Angio Hoechst NucArea IC50/EC50 [17]	VEGF_ADSC\ECFC Angio CD31 TubeArea IC50/EC50 [18]	Basal_Viability ATP SNU-C1 IC50/EC50 [1]	Basal_Viability ATP Colo 320 IC50/EC50 [2]	Basal_Viability ATP HT-29 IC50/EC50 [8]	GSK3b inh pretreated_Viability ATP HCT116 IC50/EC50 [10]	Basal_Viability ATP RKO IC50/EC50 [11]	further results
NC(N)=NN=C(/C=C/c1ccc([N+](=O)[O-])o1)/C=C/c1ccc([N+](=O)[O-])o1 [NCGC00181330-02]	–	–	–	–	–	–	–	–	–	–	–	–	–	–	–	–	–	–	–	IC50/EC50, Basal_Viability ATP SNU-C1 (assay number 30) [1]: 1.3539 µM; IC50/EC50, Basal_Viability ATP Colo 320 (assay number 27) [2]: 3 nM; IC50/EC50, Basal_Viability ATP SW480 (assay number 24) [3]: 7.6 nM; IC50/EC50, Basal_Viability ATP DLD-1 (assay number 23) [4]: > 20 µM; IC50/EC50, Basal_Viability ATP HCT116 (assay number 25) [5]: 0.1357 µM; IC50/EC50, WntCondMedia_Alk Phos C2C12 (assay number 6) [6]: 0.372 µM; IC50/EC50, WntCondMedia_bCatenin C2C12 (assay number 5) [7]: > 20 µM; IC50/EC50, Basal_Viability ATP HT-29 (assay number 28) [8]: 3 nM; IC50/EC50, Hela CellCycMod PI 2N (assay number 14) ([9]; 2N): > 10 µM; IC50/EC50, Hela CellCycMod PI 4N (assay number 16) ([9]; 4N): > 10 µM; IC50/EC50, Hela CellCycMod PI Cell Number (assay number 18) ([9]; Cell Number): > 10 µM; IC50/EC50, Hela CellCycMod PI MI (assay number 17) ([9]; MI): > 10 µM; IC50/EC50, Hela CellCycMod PI S Phase (assay number 15) ([9]; S Phase): > 10 µM; IC50/EC50, GSK3b inh pretreated_Viability ATP HCT116 (assay number 26) ([10]; GSK3b inh pretreated): 0.0237 µM; IC50/EC50, Basal_Viability ATP RKO (assay number 29) [11]: 0.0128 µM
CCCN(CCC)C(=O)C(CCC(=O)OCCCN1CCN(CCOC(=O)Cc2c(C)n(C(=O)c3ccc(Cl)cc3)c3ccc(OC)cc23)CC1)NC(=O)c1ccccc1 (stereo not drawn) [NCGC00183024-01]	> 20 µM	> 20 µM	> 20 µM	13.2162 µM	> 20 µM	> 20 µM	> 10 µM	> 10 µM	> 10 µM	5.4844 µM	> 20 µM	–	–	–	–	–	–	–	–	–
COC(=O)[C@H]1[C@H]2C[C@@H]3c4[nH]c5cc(OC)ccc5c4CCN3C[C@H]2C[C@@H](OC(=O)/C=C/c2ccc(O)c(OC)c2)[C@@H]1OC [NCGC00253604-01]	> 20 µM	> 20 µM	> 20 µM	10.4461 µM	> 20 µM	> 20 µM	> 10 µM	> 10 µM	> 10 µM	> 10 µM	> 20 µM	> 10 µM	–	–	–	–	–	–	–	–
CCC1=C[C@@H]2CN(C1)Cc1c([nH]c3ccccc13)[C@@](C(=O)OC)(c1cc3c(cc1OC)N(C)[C@H]1[C@@](O)(C(=O)OC)[C@H](OC(C)=O)[C@]4(CC)C=CCN5CC[C@]31[C@@H]54)C2.O=C(O)C(O)C(O)C(=O)O.O=C(O)C(O)C(O)C(=O)O [NCGC00263568-01]	> 20 µM	> 20 µM	> 20 µM	0.0101 µM	0.0089 µM	> 20 µM	–	–	–	–	> 20 µM	–	> 10 µM	5.5 nM	–	–	–	–	–	–
COc1cccc2c1C(=O)c1c(O)c3c(c(O)c1C2=O)C[C@@](O)(C(=O)CO)C[C@@H]3O[C@H]1C[C@H](N)[C@H](O[C@@H]2CCCCO2)[C@H](C)O1 [NCGC00344543-01]	–	–	–	3.9488 µM	> 20 µM	–	0.0795 µM	0.08063 µM	> 10 µM	0.05143 µM	–	1.746 µM	0.9949 µM	6.3 nM	9.2617 µM	2.013 µM	> 20 µM	1.275 µM	1.01 µM	Basal_Viability ATP SW480 IC50/EC50 ([3]; assay number 24): 7.822 µM; Basal_Viability ATP DLD-1 IC50/EC50 ([4]; assay number 23): 8.952 µM; Basal_Viability ATP HCT116 IC50/EC50 ([5]; assay number 25): 0.9107 µM
CC[C@]1(O)C[C@@H]2CN(CCc3c([nH]c4ccccc34)[C@@](C(=O)OC)(c3cc4c(cc3OC)N(C)[C@H]3[C@@](O)(C(=O)OC)[C@H](OC(C)=O)[C@]5(CC)C=CCN6CC[C@]43[C@@H]65)C2)C1.O=S(=O)(O)O [NCGC00344583-01]	–	–	–	> 20 µM	0.0035 µM	–	0.0048 µM	0.00483 µM	0.00452 µM	0.00521 µM	–	> 10 µM	> 10 µM	2.6 nM	0.001 µM	0.001 µM	0.001 µM	0.001 µM	0.001 µM	–
